Here are results for 12 molecules from patent publication US11479563B2, “Biphenyl compound or salt thereof” (TAIHO PHARMACEUTICAL CO., LTD., priority 2017, dated 2022).

Structures can show the parent of a compound that is named as a salt. Where two headings read alike, the source gives them in different places. Bounds are passed on as bounds.

Test [1] concerns NCI-H146 cells (human small-cell lung cancer cell lines). Description: Cell-growth inhibition test: NCI-H146 cells. The class given is cell-based. Put shortly: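 NCI-H146 small-cell lung cancer cells were cultured with compound or DMSO for 10 days at 37°C, 5% CO2. Viability read by CellTiter-Glo luminescence; growth rate (%) = treated/DMSO luminescence × 100.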
In test [2] the test system is NCI-H1417 cells (human small-cell lung cancer cell lines). As to conditions: read-out: Cell-Growth Inhibition Test: NCI-H1417 Cells IC50.
The subject of test [3] is HEL cells (human acute myelocytic leukemia cell lines). As to conditions: read-out: Cell-Growth Inhibition Test: HEL Cells IC50.
Protocol: (§1) Under the following conditions, an in vitro cell-growth inhibition test was performed with respect to HEL cells (human acute myelocytic leukemia cell lines), NCI-H1417 cells (human small-cell lung cancer cell lines), and NCI-H146 cells (human small-cell lung cancer cell lines).
(§2) The cells with the compound of the present invention or with dimethylsulfoxide alone were cultured at 37° C. in a 5% carbon-dioxide-containing incubator for 5 days (HEL cells) or 10 days (NCI-H1417 cells and NCI-H146 cells). After culture, the plate was allowed to stand at room temperature for 30 minutes, and 100 μL of the supernatant was removed from each well to leave 100 μL of the cell culture solution. To each well containing the remaining 100 μL of the cell culture solution, the same amount of CellTiter-Glo 2.0 Assay (Promega, Cat #: G9242) was added. The microplate was shaken with a plate mixer for 1 minute and then allowed to stand in a dark place for 10 minutes. Thereafter, the luminescence intensity of viable cells in each well was measured using a microplate reader (PerkinElmer, EnSpire). […] Cell growth rate (%)=T/C×100 T: The luminescence intensity in a well to which the compound of the present invention was added (count per second) C: The luminescence intensity in a well to which dimethylsulfoxide alone was added (count per second)
Another test concerns the target T1, human LSD1 protein (Homo sapiens, UniProt O60341).
T1 construct: purchased Abcam ab80379
Briefly: Measurement of LSD1 inhibitory activity (in vitro). The class given is biochemical. The protocol:
To measure the inhibitory activity, first, the compound of the present invention was serially diluted in dimethylsulfoxide (DMSO). Sequentially, the solution of the compound of the present invention in DMSO (final concentration of DMSO: 5%) and human LSD1 protein (Abcam, ab80379) were added to a reaction buffer (25 mM Tris-HCl (pH 7.5), 50 mM KCl, 2 mM CHAPS, 1 mM DTT, 0.02% BSA). The mixture was preincubated at 25° C. for 30 minutes. […] Tranylcypromine (final concentration: 3 mM) was then added thereto to terminate the reaction.

In test [4] the test system is NCI-H1417 cells (human small-cell lung cancer cell lines). Description: cells. To be noted: NCI-H1417, read-out: Cell-Growth Inhibition Test: NCI-H1417 Cells IC50 (nM).
In test [5] the test system is HEL cells (human acute myelocytic leukemia cell lines). Briefly: cells. To be noted: read-out: Cell-Growth Inhibition Test: HEL Cells IC50 (nM).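 Also: viable cell count by CellTiter-Glo 2.0 luminescence after 5 days of culture at 37 °C, growth expressed relative to DMSO-only wells as 100%.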
Protocol: as §1, §2
Setting [6] is: NCI-H146 cells, read-out: Cell-Growth Inhibition Test: NCI-H146 Cells IC50.
Where [7] appears, read: Homo sapiens, NCI-H146, read-out: Cell-Growth Inhibition Test: NCI-H146 Cells IC50.
[8] abbreviates: Homo sapiens, NCI-H146, read-out: Cell-Growth Inhibition Test: NCI-H146 Cells IC50 (nM).
Setting [9] is: human LSD1 protein, H3K4 (Me1)-biotin-labeled peptide 200 nM, preincubated 30 minutes, read-out: LSD1 inhibitory activity IC50.

On to “2′-(6,7-difluoro-1-(2-hydroxy-2-methylpropyl)-1H-indol-5-yl)-3-fluoro-5′-(2,7-diazaspiro[3.4]octane-6-carbonyl)-[1,1′-biphenyl]-4-carbonitrile [Example 200]”, for which the IC50 is 2.31 nM in test [1] (setting [6]), 1.23 nM in test [2] and 3.72 nM in test [3].
For “3-fluoro-2′-(6-fluoro-1-(2-hydroxy-2-methylpropyl)-1H-indazol-5-yl)-5′-(2,7-diazaspiro[3.4]octane-6-carbonyl)-[1,1′-biphenyl]-4-carbonitrile [Example 199]” the same measures were 5.45 nM, 4.55 nM and 22 nM.
For `Cc1c(F)c(-c2ccc(C(=O)N3[C@@H]4CC[C@H]3[C@@H](N)C4)cc2-c2ccc(C#N)c(F)c2)cc2nnn(CC3(O)CCC3)c12` (single isomer, unassigned) [Example 270] the same measures were 0.37 nM, 0.18 nM and 0.26 nM.
As for `Cc1ccc(-c2ccc(CN3[C@H]4CC[C@@H]3[C@H](N)C4)cc2-c2ccc([N+](=O)[O-])cc2)cc1` (single isomer, unassigned) [Example 296, dihydrochloride], the half-maximal inhibitory concentration (IC50) in test [2] came to 37.6 nM; in test [3], 5.83 nM.
For the molecule `Cc1noc2cc(-c3ccc(C(=O)N4[C@@H]5CC[C@H]4C[C@@H](N)C5)cc3-c3ccc(C#N)c(F)c3)c(F)cc12` [Example 179, 5′-((3-endo)-3-amino-8-azabicyclo[3.2.1]octane-8-carbonyl)-3-fluoro-2′-(5-fluoro-3-methylbenzo[d]isoxazol-6-yl)-[1,1′-biphenyl]-4-carbonitrile], the IC50 in test [1] (setting [6]) came out at 1.05 nM; in test [2], 3.36 nM; in test [3], 1.52 nM.
Regarding `Cn1cc(C(N)=O)c2cc(-c3ccc(C(=O)N4C5CCC4C(N)C5)cc3-c3ccc(C#N)c(F)c3)c(F)cc21` [Example 236, 5-(5-((1S,2S,4R)-rel-2-amino-7-azabicyclo[2.2.1]heptane-7-carbonyl)-4′-cyano-3′-fluoro-[1,1′-biphenyl]-2-yl)-6-fluoro-1-methyl-1H-indole-3-carboxyamide-isomer-X], the IC50 in test [1] (setting [7]) came out at 28.5 nM; against human LSD1 protein, 0.28 nM; in test [4], 11 nM.
As for `CC(C)(O)Cn1nnc2cc(-c3ccc(CN4C5CCC4C(N)C5)cc3-c3ccc(C#N)c(F)c3)c(F)c(Br)c21` [Example 294, 5′-(((1S,2S,4R)-rel-2-amino-7-azabicyclo[2.2.1]heptan-7-yl)methyl)-2′-(7-bromo-6-fluoro-1-(2-hydroxy-2-methylpropyl)-1H-benzo[d][1,2,3]triazol-5-yl)-3-fluoro-[1,1′-biphenyl]-4-carbonitrile-isomer-X dihydrochloride], the IC50 in test [1] (setting [8]) turned out to be 4.05 nM; in test [4] it was 0.055 nM; in test [5], 0.04 nM.
As to `CCC(O)(CC)Cn1nnc2cc(-c3ccc(CN4C5CCC4C(N)C5)cc3-c3ccc(C#N)c(F)c3)c(F)c(Br)c21` [Example 295, 5′-(((1S,2S,4R)-rel-2-amino-7-azabicyclo[2.2.1]heptan-7-yl)methyl)-2′-(7-bromo-1-(2-ethyl-2-hydroxybutyl)-6-fluoro-1H-benzo[d][1,2,3]triazol-5-yl)-3-fluoro-[1,1′-biphenyl]-4-carbonitrile-isomer-X dihydrochloride], the concentration for half-maximal inhibition (IC50) in test [1] (setting [8]) is 0.24 nM; in test [4] it was 0.066 nM; in test [5] it was 0.049 nM.
In the case of `CC(C)(O)Cn1ncc2cc(-c3ccc(CN4CC5CNCC5C4)cc3-c3ccc(C#N)c(F)c3)c(F)cc21` (stereo not drawn) [Example 297, 3-fluoro-2′-(6-fluoro-1-(2-hydroxy-2-methylpropyl)-1H-indazol-5-yl)-5′-((hexahydropyrrolo[3,4-c]pyrrol-2(1H)-yl)methyl)-[1,1′-biphenyl]-4-carbonitrile dihydrochloride], the 50% inhibitory concentration (IC50) in test [1] (setting [7]) is 8.26 nM; at human LSD1 protein (setting [9]), 0.4 nM; in test [4], 3.8 nM; in test [5] it was 2.68 nM.
For `CC(C)(O)Cn1ncc2cc(-c3ccc(CN4CC5(CCCNC5)C4)cc3-c3ccc(C#N)c(F)c3)c(F)cc21` [Example 298, 5′-((2,6-diazaspiro[3.5]nonan-2-yl)methyl)-3-fluoro-2′-(6-fluoro-1-(2-hydroxy-2-methylpropyl)-1H-indazol-5-yl)-[1,1′-biphenyl]-4-carbonitrile dihydrochloride], the IC50 in test [1] (setting [7]) came out at 1 nM; on human LSD1 protein (setting [9]), 0.2 nM; in test [4], 1.72 nM; in test [5], 0.46 nM.
Turning to `CC(C)(O)Cn1ncc2cc(-c3ccc(CN4[C@@H]5CC[C@H]4C[C@@H](N)C5)cc3-c3ccc(C#N)c(F)c3)c(F)cc21` [Example 299, 5′-((3-endo)-amino-8-azabicyclo[3.2.1]octan-8-yl)methyl)-3-fluoro-2′-(6-fluoro-1-(2-hydroxy-2-methylpropyl)-1H-indazol-5-yl)-[1,1′-biphenyl]-4-carbonitrile dihydrochloride], the IC50 is below 1.37 nM in test [1] (setting [7]), 0.2 nM on human LSD1 protein, 0.949 nM in test [4] and 0.43 nM in test [5].
`CC(C)(O)Cn1ncc2cc(-c3ccc(CN4CCC5(CNC5)C4)cc3-c3ccc(C#N)c(F)c3)c(F)cc21` [Example 300, 5′-((2,6-diazaspiro[3.4]octan-6-yl)methyl)-3-fluoro-2′-(6-fluoro-1-(2-hydroxy-2-methylpropyl)-1H-indazol-5-yl)-[1,1′-biphenyl]-4-carbonitrile dihydrochloride]: the half-inhibitory concentration (IC50) in test [1] (setting [7]) was determined as 0.7 nM; at human LSD1 protein (setting [9]), 0.23 nM; in test [4], 1.53 nM; in test [5], 0.6 nM.
